Literature values, collected in patent publication US8778840B2, “Soluble liquid formulations of quinclorac ammonium salts” (BASF SE, priority 2007, dated 2014).

Settings: pH 7 at 20° C.

For `O=C(O)c1c(Cl)ccc2cc(Cl)cnc12` [Quinclorac, 3,7-dichloro-8-quinolinecarboxylic acid], the solubility in water is listed as 0.065 mg/kg.
